These results are taken from patent publication US20230019491A1, “PYRIMIDINE TBK/IKKe INHIBITOR COMPOUNDS AND USES THEREOF” (Merck Patent GmbH, priority 2017, published 2023).

The target in one experiment is T1, IKKε (Homo sapiens, UniProt Q14164).
T1 sequence (Q14164 1-716): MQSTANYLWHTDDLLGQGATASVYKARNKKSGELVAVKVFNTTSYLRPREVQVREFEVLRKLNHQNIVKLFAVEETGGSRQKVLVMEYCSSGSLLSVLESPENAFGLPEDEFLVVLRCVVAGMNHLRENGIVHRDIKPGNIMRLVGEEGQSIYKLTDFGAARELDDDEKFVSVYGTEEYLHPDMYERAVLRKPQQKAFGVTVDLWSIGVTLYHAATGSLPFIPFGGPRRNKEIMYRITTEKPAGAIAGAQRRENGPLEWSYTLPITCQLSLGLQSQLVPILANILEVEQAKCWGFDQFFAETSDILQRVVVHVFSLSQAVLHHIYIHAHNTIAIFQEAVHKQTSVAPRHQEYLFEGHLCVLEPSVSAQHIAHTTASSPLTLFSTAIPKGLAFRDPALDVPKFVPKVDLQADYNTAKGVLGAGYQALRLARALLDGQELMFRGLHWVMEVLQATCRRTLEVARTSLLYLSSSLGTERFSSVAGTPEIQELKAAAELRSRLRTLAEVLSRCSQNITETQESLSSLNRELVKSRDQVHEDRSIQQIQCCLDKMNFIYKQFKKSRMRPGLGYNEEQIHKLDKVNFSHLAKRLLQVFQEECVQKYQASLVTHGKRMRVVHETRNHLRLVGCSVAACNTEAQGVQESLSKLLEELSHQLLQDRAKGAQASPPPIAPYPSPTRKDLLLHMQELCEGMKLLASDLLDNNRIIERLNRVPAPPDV
The experiment is described as follows: IKKε biochemical assay. The note with it: 10 point 1:4 dose response, 30 uM top concentration, 90 min at 25° C., LabChip EZ Reader II; read-out: IKKε_IC50. The essentials:
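Compounds in 1% DMSO final were incubated with IKKε enzyme and substrate at 25° C. for 90 min, then stopped. Substrate and product peaks were resolved by LabChip EZ Reader II mobility-shift read-out. Staurosporine at 10 uM final served as the full-inhibition control.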

For another experiment, the target named is T2, TBK1 (Homo sapiens, UniProt Q9UHD2).
T2 sequence (Q9UHD2 1-729): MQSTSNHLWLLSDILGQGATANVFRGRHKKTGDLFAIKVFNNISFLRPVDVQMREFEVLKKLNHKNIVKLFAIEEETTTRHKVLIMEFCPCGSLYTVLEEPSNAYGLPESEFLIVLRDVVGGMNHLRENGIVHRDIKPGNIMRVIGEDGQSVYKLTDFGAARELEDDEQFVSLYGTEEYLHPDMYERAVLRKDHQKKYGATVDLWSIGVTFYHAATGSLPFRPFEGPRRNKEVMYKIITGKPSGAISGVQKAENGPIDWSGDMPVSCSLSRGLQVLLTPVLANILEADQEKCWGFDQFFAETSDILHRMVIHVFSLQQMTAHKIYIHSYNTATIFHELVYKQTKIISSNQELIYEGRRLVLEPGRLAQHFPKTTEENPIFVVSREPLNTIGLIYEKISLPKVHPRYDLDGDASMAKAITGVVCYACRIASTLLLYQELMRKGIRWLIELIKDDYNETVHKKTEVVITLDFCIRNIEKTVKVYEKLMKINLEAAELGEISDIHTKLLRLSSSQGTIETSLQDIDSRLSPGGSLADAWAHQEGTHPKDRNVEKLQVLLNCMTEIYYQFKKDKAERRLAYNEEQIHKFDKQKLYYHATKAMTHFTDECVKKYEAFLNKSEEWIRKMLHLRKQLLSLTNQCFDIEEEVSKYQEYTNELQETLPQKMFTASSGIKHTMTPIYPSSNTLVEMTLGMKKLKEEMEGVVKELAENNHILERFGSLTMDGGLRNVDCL
The experiment is described as follows: TBK biochemical assay. The note with it: 10 point 1:4 dose response, 30 uM top concentration, 90 min at 25° C., LabChip EZ Reader II; read-out: TBK1_IC50. The essentials:
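Substrate and product were separated and quantified by microfluidic mobility-shift read (LabChip). 10 uM staurosporine served as the full-inhibition control, and the reference compound was tested from 1 uM final.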

Each structure is given as a SMILES string. Some results are limits rather than exact numbers.

For the molecule `COc1nc(Nc2nccc(-c3ccc(OC4CCN(C(=O)CO)CC4)c(C#N)c3)n2)ccc1N1CCN(C2COC2)CC1` [Example 186, 2-(1-(2-hydroxyacetyl)piperidin-4-yloxy)-5-(2-(6-methoxy-5-(4-(oxetan-3-yl)piperazin-1-yl)pyridin-2-ylamino)pyrimidin-4-yl)benzonitrile], the IC50 at IKKε and at TBK1 was less than 100 nM in each case.

Regarding `COc1nc(Nc2nccc(-c3ccc(OC4CCN(C(=O)[C@H](C)O)CC4)c(C#N)c3)n2)ccc1N1CCN(C2COC2)CC1` [Example 187, 2-([1-[(2S)-2-hydroxypropanoyl]piperidin-4-yl]oxy)-5-[2-([6-methoxy-5-[4-(oxetan-3-yl)piperazin-1-yl]pyridin-2-yl]amino)pyrimidin-4-yl]benzonitrile], the IC50 at IKKε and on TBK1 was less than 100 nM throughout.

As to `COc1nc(Nc2nccc(-c3ccc(O[C@H]4CCN(C(=O)[C@@H](C)O)C[C@@H]4F)c(C#N)c3)n2)ccc1C1CCN(C2COC2)CC1` [Example 188, 2-[(3S,4S)-3-Fluoro-1-((R)-2-hydroxy-propionyl)-piperidin-4-yloxy]-5-[2-(2-methoxy-1′-oxetan-3-yl-1′,2′,3′,4′,5′,6′-hexahydro-[3,4′]bipyridinyl-6-ylamino)-pyrimidin-4-yl]-benzonitrile], the IC50 on IKKε and at TBK1 was less than 100 nM throughout.

For the molecule `COc1nc(Nc2nccc(-c3ccc(O[C@H]4CCN(C(=O)[C@H](C)O)C[C@@H]4F)c(C#N)c3)n2)ccc1C1CCN(C2COC2)CC1` [Example 189, 2-[(3S,4S)-3-Fluoro-1-((S)-2-hydroxy-propionyl)-piperidin-4-yloxy]-5-[2-(2-methoxy-1′-oxetan-3-yl-1′,2′,3′,4′,5′,6′-hexahydro-[3,4′]bipyridinyl-6-ylamino)-pyrimidin-4-yl]-benzonitrile], the IC50 on IKKε and on TBK1 was less than 100 nM throughout.

Regarding `COc1nc(Nc2nccc(-c3ccc(O[C@H]4CCN(C(=O)C(C)O)C[C@H]4F)c(C#N)c3)n2)ccc1N1CCN(C2COC2)CC1` (stereo partly drawn) [Example 190, 2-[[(3R,4S)-3-fluoro-1-(2-hydroxypropanoyl)piperidin-4-yl]oxy]-5-[2-([6-methoxy-5-[4-(oxetan-3-yl)piperazin-1-yl]pyridin-2-yl]amino)pyrimidin-4-yl]benzonitrile], the IC50 at IKKε and at TBK1 was less than 100 nM throughout.

For the molecule `COc1nc(Nc2nccc(-c3ccc(O[C@H]4CCN(C(=O)[C@H](C)O)C[C@H]4F)c(C#N)c3)n2)ccc1C1CCN(C2COC2)CC1` [Example 191, 2-[(3R,4S)-3-Fluoro-1-((S)-2-hydroxy-propionyl)-piperidin-4-yloxy]-5-[2-(2-methoxy-1′-oxetan-3-yl-1′,2′,3′4′,5′,6′-hexahydro-[3,4′]bipyridinyl-6-ylamino)-pyrimidin-4-yl]-benzonitrile], the IC50 on IKKε and at TBK1 was less than 100 nM in each case.

With `COc1nc(Nc2nccc(-c3ccc(O[C@@H]4CCN(C(=O)[C@H](C)O)C[C@H]4F)c(C#N)c3)n2)ccc1C1CCN(C2COC2)CC1` [Example 192, 2-[(3R,4R)-3-Fluoro-1-((S)-2-hydroxy-propionyl)-piperidin-4-yloxy]-5-[2-(2-methoxy-1′-oxetan-3-yl-1′,2′,3′,4′,5′,6′-hexahydro-[3,4′]bipyridinyl-6-ylamino)-pyrimidin-4-yl]-benzonitrile], the IC50 at IKKε and at TBK1 was less than 100 nM throughout.

Take `COc1nc(Nc2nccc(-c3ccc(O[C@@H]4CCN(C(=O)[C@@H](C)O)C[C@H]4F)c(C#N)c3)n2)ccc1C1CCN(C2COC2)CC1` [Example 193, 2-[(3R,4R)-3-Fluoro-1-((R)-2-hydroxy-propionyl)-piperidin-4-yloxy]-5-[2-(2-methoxy-1′-oxetan-3-yl-1′,2′,3′,4′,5′,6′-hexahydro-[3,4′]bipyridinyl-6-ylamino)-pyrimidin-4-yl]-benzonitrile]: the IC50 at IKKε and on TBK1 was 100 to 1000 nM throughout.

Turning to `COc1nc(Nc2nccc(-c3ccc(O[C@@H]4CCN(C(=O)[C@H](C)O)C[C@@H]4F)c(C#N)c3)n2)ccc1C1CCN(C2COC2)CC1` [Example 194, 2-[(3S,4R)-3-Fluoro-1-((S)-2-hydroxy-propionyl)-piperidin-4-yloxy]-5-[2-(2-methoxy-1′-oxetan-3-yl-1′,2′,3′,4′,5′,6′-hexahydro-[3,4′]bipyridinyl-6-ylamino)-pyrimidin-4-yl]-benzonitrile], the IC50 at IKKε and on TBK1 was less than 100 nM throughout.

In the case of `COc1nc(Nc2nccc(-c3ccc(O[C@@H]4CCN(C(=O)[C@@H](C)O)C[C@@H]4F)c(C#N)c3)n2)ccc1C1CCN(C2COC2)CC1` [Example 195, 2-[(3S,4R)-3-Fluoro-1-((R)-2-hydroxy-propionyl)-piperidin-4-yloxy]-5-[2-(2-methoxy-1′-oxetan-3-yl-1′,2′,3′,4′,5′,6′-hexahydro-[3,4′]bipyridinyl-6-ylamino)-pyrimidin-4-yl]-benzonitrile], the IC50 on IKKε and at TBK1 was 100 to 1000 nM each time.

For the molecule `COc1nc(Nc2nccc(-c3ccc(O[C@H]4CCN(C(=O)[C@H](C)O)C[C@@H]4F)c(C#N)c3)n2)ccc1N1CCN(C2COC2)CC1` [Example 196, 2-[(3S,4S)-3-Fluoro-1-((S)-2-hydroxy-propionyl)-piperidin-4-yloxy]-5-{2-[6-methoxy-5-(4-oxetan-3-yl-piperazin-1-yl)-pyridin-2-ylamino]-pyrimidin-4-yl}-benzonitrile], the IC50 on IKKε and on TBK1 was less than 100 nM in each case.

`COc1nc(Nc2nccc(-c3ccc(O[C@H]4CCN(C(=O)[C@@H](O)CO)C[C@@H]4F)c(C#N)c3)n2)ccc1N1CCN(C2COC2)CC1` [Example 197, 2-[(3S,4S)-1-((S)-2,3-Dihydroxy-propionyl)-3-fluoro-piperidin-4-yloxy]-5-{2 [6-methoxy-5-(4-oxetan-3-yl-piperazin-1-yl)-pyridin-2-ylamino]-pyrimidin-4-yl}-benzonitrile]: the IC50 at IKKε and on TBK1 was less than 100 nM throughout.

On to `COc1nc(Nc2nccc(-c3ccc(O[C@H]4CCNC[C@H]4F)c(C#N)c3)n2)ccc1N1CCN(C2COC2)CC1` [Example 198, 2-[[(3R,4S)-3-fluoropiperidin-4-yl]oxy]-5-[2-([6-methoxy-5-[4-(oxetan-3-yl)piperazin-1-yl]pyridin-2-yl]amino)pyrimidin-4-yl]benzonitrile], for which the IC50 at IKKε and at TBK1 was less than 100 nM in each case.

Turning to `COc1nc(Nc2nccc(-c3ccc(O[C@H]4CCN(C(=O)[C@H](C)O)C[C@H]4F)c(C#N)c3)n2)ccc1N1CCN(C2COC2)CC1` [Example 199, 2-[[(3R,4S)-3-fluoro-1-[(2S)-2-hydroxypropanoyl]piperidin-4-yl]oxy]-5-[2-([6-methoxy-5-[4-(oxetan-3-yl)piperazin-1-yl]pyridin-2-yl]amino)pyrimidin-4-yl]benzonitrile], the IC50 on IKKε and at TBK1 was less than 100 nM throughout.

As for `COc1nc(Nc2nccc(-c3ccc(O[C@H]4CCN(C(=O)[C@H](C)O)C[C@H]4F)c(C#N)c3)n2)ccc1N1CCN(C)CC1` [Example 201, 2-[[(3R,4S)-3-fluoro-1-[(2S)-2-hydroxypropanoyl]piperidin-4-yl]oxy]-5-(2-[[6-methoxy-5-(4-methylpiperazin-1-yl)pyridin-2-yl]amino]pyrimidin-4-yl)benzonitrile], the IC50 at IKKε and on TBK1 was less than 100 nM throughout.
